Assay results: US11634443B2, “Treprostinil prodrugs” (United Therapeutics Corporation, priority 2019, dated 2023)
Read-outs that look alike come from different tables or passages of the source.

Columns and labels:
[1] = Hydrolysis of treprostinil prodrugs to treprostinil at pH 6, 7 and 8 and 40 C; format: physicochemical
Excerpt: Tables 26, 27 and 28 present data for hydrolysis of selected treprostinil prodrugs at pH 6, 7 and 8, respectively, and 40 C.

[2] = Plasma stability and formation of treprostinil, rat plasma; format: in vitro ADME; settings: for Formation of Treprostinil, Concentration: prodrug dosed at 1 μM
Experimental: (§1) Studies were carried out in mixed-gender human plasma male Sprague-Dawley rat plasma, and male Beagle dog plasma. All plasma was obtained from Bioreclamation and collected on K2EDTA. Plasma was adjusted to pH 7.4 prior to initiating the experiments. DMSO stocks were first prepared for the test articles. […] The vials were kept in a benchtop Thermomixer® for the duration of the experiment. […] Samples were stored at 4° C. until the end of the experiment. After the final time point was sampled, the plate was mixed and then centrifuged at 3000 rpm for 10 minutes.

[3] = Plasma stability and formation of treprostinil, dog plasma; format: in vitro ADME; settings: for Formation of Treprostinil, Concentration: prodrug dosed at 1 μM
Experimental: as §1

[4] = microsomes
Experimental: (§2) Mixed-gender human liver microsomes, male Sprague-Dawley rat liver microsomes, and male Beagle dog liver microsomes were purchased from XenoTech. The reaction mixture, minus NADPH, was prepared as described below. […] An aliquot of the reaction mixture (without cofactor) was equilibrated in a shaking water bath at 37° C. for 5 minutes. The reaction was initiated by the addition of cofactor, and the mixture was incubated in a shaking water bath at 37° C. Aliquots (200 μL) were withdrawn at 0, 10, 20, 30, and 60 minutes. Test article samples were immediately combined with 400 μL of ice-cold acetonitrile (ACN) to terminate the reaction. […] The samples were then mixed and centrifuged to precipitate proteins. Aliquots of the supernatant were removed, diluted 1:1 into distilled water containing internal standard, and analyzed by LC-MS/MS against calibration standards prepared in a matched matrix. All samples were analyzed for the dosed prodrugs as well as the drug, treprostinil. The test article concentration was compared to the concentration at time 0 to determine the percent of test article remaining at each time point. Half-lives and clearance were calculated using GraphPad software, fitting to a single-phase exponential decay equation.
Liver Microsomes 0.5 mg/mL
Potassium Phosphate, pH 7.4 100 mM

[5] = Stability and formation of treprostinil in human cryopreserved hepatocytes
[6] = molecular target: T1, prostaglandin E2 (PGE2) receptor 2 (EP2) (Homo sapiens, UniProt P43116); experiment: EP2 receptor cAMP assay (agonist mode); format: cell-based; settings: cAMP, cells overexpressing human EP2
T1 construct: expressed in transfected cells; host or cells: HEK293T
Experimental: (§3) Assay Buffer: • EP1 Calcium and DP1 cAMP Assays: HBSS plus 20 mM HEPES • EP2 and IP1 cAMP Assays: 1 mM IBMX in HBSS plus 20 mM HEPES
(§4) Cells were thawed from frozen cells and resuspended in assay buffer at desired concentrations. cAMP or Calcium assays were performed according to the manufacturer's protocol using Multiscreen™ TR-FRET cAMP 1.0 No Wash Assay Kit or Multiscreen™ Calcium 1.0 No Wash Kit.
(§5) Gas Cyclic AMP (cAMP) Assay: In agonist mode testing, cells were seeded in a 384-well plate at an appropriate density and then were treated with compounds and incubated at 37° C. for 20 minutes. The reaction was terminated by sequentially adding sequentially adding trFluor™ Eu-labeled cAMP and trFluor™ 650-labeled anti-cAMP antibody in lysis buffer. […] All testing wells contained 0.1% DMSO in the final concentrations.
(§6) Data in graphs are represented in Mean±SD. Dose-dependent responses were fitted with sigmoidal dose-response curves allowing variable slopes using GraphPad Prism version 6 (Graphpad Prism).
(§7) These studies used cell lines overexpressing either human IP, EP2 or DP1, or EP1 receptors, and following incubation with varying concentrations of compounds, cAMP levels were measured using Fluorescence Resonance Energy Transfer (FRET).

[7] = Stability and formation of treprostinil in rat cryopreserved hepatocytes
[8] = microsomes; remark: listed apart in the source
Experimental: as §2
Liver Microsomes 0.5 mg/mL
Potassium Phosphate, pH 7.4 100 mM

[9] = Stability and formation of treprostinil in simulated intestinal fluid; format: in vitro ADME; settings: for Formation of Treprostinil, Concentration: SIF, prodrug dosed at 1 μM
Experimental: Studies were carried out in simulated intestinal fluid (SIF). SIF was prepared by dissolving 6.8 g of KH2PO4 in 250 mL of water, mixing, and then adding 77 mL of 0.2 N NaOH and 750 mL of water. Pancreatin (10 g) was added, mixed, and the pH was adjusted to pH 6.8 with 10 N NaOH. DMSO stocks were first prepared for the test articles. Aliquots of the DMSO solutions were dosed into 0.4 mL of matrix, which had been pre-warmed to 37° C., at a final test article concentration of 1 μM. The vials were kept in a benchtop Thermomixer® for the duration of the experiment. A separate tube was dosed for each time point in each matrix. At the appropriate times (0, 15, 30, 60, and 120 minutes), 0.8 mL of acetonitrile (ACN) containing 1% formic acid and internal standard was added directly to a single tube. Samples were mixed and then immediately stored at 4° C. until the end of the experiment. After the final time point was sampled, the plate was mixed and then centrifuged at 3000 rpm for 10 minutes. Aliquots of the supernatant were removed, diluted 1:1 into distilled water containing internal standard, and analyzed by LC-MS/MS against calibration standards prepared in a matched matrix. All samples were analyzed for the dosed prodrugs as well as the drug, treprostinil. The test article concentration was compared to the concentration at time 0 to determine the percent of test article remaining at each time point. Half-lives were calculated using GraphPad software, fitting to a single-phase exponential decay equation.

[10] = Stability and formation of treprostinil in dog cryopreserved hepatocytes
[11] = Plasma stability and formation of treprostinil, human plasma; format: in vitro ADME; settings: for Formation of Treprostinil, Concentration: prodrug dosed at 1 μM
Experimental: as §1

[12] = molecular target: T2, prostaglandin D2 (PGD2) receptor 1 (DP1) (Homo sapiens, UniProt Q13258); experiment: DP1 receptor cAMP assay (agonist mode); format: cell-based; settings: cAMP, cells overexpressing human DP1
T2 construct: expressed in transfected cells; host or cells: HEK293T
T2 sequence (Q13258 1-359): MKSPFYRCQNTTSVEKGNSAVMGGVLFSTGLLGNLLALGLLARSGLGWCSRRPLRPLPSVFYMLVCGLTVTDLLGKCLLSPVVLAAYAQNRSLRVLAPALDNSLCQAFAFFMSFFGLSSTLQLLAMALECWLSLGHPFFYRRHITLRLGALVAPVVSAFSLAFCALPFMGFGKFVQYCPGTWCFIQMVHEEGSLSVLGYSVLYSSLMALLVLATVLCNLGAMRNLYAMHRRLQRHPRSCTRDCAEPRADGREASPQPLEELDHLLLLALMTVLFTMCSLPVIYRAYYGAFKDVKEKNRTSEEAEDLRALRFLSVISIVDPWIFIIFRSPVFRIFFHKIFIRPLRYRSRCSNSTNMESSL
Experimental: as §3, §4, §5, §6, §7

[13] = molecular target: T3, prostaglandin I2 (PGI2) receptor (IP) (Homo sapiens, UniProt P43119); experiment: IP receptor cAMP assay (agonist mode); format: cell-based; settings: cAMP, cells overexpressing human IP
T3 construct: expressed in transfected cells; host or cells: CHO-K1
T3 sequence (P43119 whole entry): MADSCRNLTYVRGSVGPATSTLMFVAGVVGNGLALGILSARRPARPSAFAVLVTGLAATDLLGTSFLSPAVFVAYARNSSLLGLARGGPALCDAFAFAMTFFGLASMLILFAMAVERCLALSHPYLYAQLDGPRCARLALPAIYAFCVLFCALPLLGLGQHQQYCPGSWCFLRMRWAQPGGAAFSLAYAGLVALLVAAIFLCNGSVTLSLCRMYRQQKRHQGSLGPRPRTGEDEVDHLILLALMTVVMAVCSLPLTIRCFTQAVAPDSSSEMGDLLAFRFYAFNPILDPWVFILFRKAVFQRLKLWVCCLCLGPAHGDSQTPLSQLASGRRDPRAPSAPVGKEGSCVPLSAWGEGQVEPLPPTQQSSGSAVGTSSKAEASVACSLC
Experimental: as §3, §4, §5, §6, §7

T1 sequence (P43116 whole entry): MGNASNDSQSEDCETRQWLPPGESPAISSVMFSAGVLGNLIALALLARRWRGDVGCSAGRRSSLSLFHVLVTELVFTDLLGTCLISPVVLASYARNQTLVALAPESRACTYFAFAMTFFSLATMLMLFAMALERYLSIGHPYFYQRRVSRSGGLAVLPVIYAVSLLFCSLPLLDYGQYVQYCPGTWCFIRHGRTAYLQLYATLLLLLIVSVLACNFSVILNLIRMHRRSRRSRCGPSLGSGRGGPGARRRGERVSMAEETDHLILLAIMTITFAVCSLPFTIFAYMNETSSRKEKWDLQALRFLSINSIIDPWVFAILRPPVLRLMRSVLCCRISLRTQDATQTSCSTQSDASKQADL

treprostinil diacetate [Prodrug LXXII]
Hydrolysis of prodrug to treprostinil, % Area, t = 1 week ([1]; pH 6, 40 C): 0.00 % Area
Hydrolysis of prodrug to treprostinil, % Area, t = 2 weeks ([1]; pH 6, 40 C): 0.00 % Area
Hydrolysis of prodrug to treprostinil, % Area, t = 3 weeks ([1]; pH 6, 40 C): 0.00 % Area
Hydrolysis of prodrug to treprostinil, % Area, t = 1 week ([1]; pH 7, 40 C): 0.00 % Area
Hydrolysis of prodrug to treprostinil, % Area, t = 2 weeks ([1]; pH 7, 40 C): 0.00 % Area
Hydrolysis of prodrug to treprostinil, % Area, t = 3 weeks ([1]; pH 7, 40 C): 0.00 % Area
Hydrolysis of prodrug to treprostinil, % Area, t = 1 week ([1]; pH 8, 40 C): 0.00 % Area
Hydrolysis of prodrug to treprostinil, % Area, t = 2 weeks ([1]; pH 8, 40 C): 0.00 % Area
Hydrolysis of prodrug to treprostinil, % Area, t = 3 weeks ([1]; pH 8, 40 C): 0.00 % Area
Formation of Treprostinil, Concentration ([2]; 0 min): 0 µM
Half-Life ([2]; 1 μM, 37° C.): >2 h
Formation of Treprostinil, Concentration ([2]; 60 mm): 0.00595 µM
Formation of Treprostinil, Concentration ([2]; 15 min): 0 µM
Formation of Treprostinil, Concentration ([2]; 30 min): 0 µM
Percent Remaining ([2]; 60 min, 1 μM, 37° C.): 83.6%
Percent Remaining ([2]; 120 min, 1 μM, 37° C.): 79.7%
Formation of Treprostinil, Concentration ([2]; 120 min): 0.0151 µM
Formation of Treprostinil, Concentration ([3]; 0 min): 0 µM
Half-Life ([3]; 1 μM, 37° C.): >2 h
Percent Remaining ([3]; 15 min, 1 μM, 37° C.): 96.7%
Formation of Treprostinil, Concentration ([3]; 15 min): 0 µM
Formation of Treprostinil, Concentration ([3]; 30 min): 0 µM
Percent Remaining ([3]; 120 min, 1 μM, 37° C.): 82.9%
Formation of Treprostinil, Concentration ([3]; 120 min): 0 µM
Formation of Treprostinil, Concentration [3]: 0 µM
Half-Life [4]: <0.167 h
Treprostinil Concentration, 0 min [5]: 0.00458 µM
Treprostinil Concentration, 15 min [5]: 0.562 µM
Treprostinil Concentration, 30 min [5]: 0.491 µM
Treprostinil Concentration, 60 min [5]: 0.433 µM
Treprostinil Concentration, 120 min [5]: 0.364 µM
Activity at the EP2 receptor compared to treprostinil [6]: non-traditional dose response curve
Treprostinil Concentration, 0 min [7]: 0 µM
Treprostinil Concentration, 15 min [7]: 0.24 µM
Treprostinil Concentration, 30 min [7]: 0.301 µM
Treprostinil Concentration, 60 min [7]: 0.298 µM
Treprostinil Concentration, 120 min [7]: 0.274 µM
Half-Life [8]: <0.167 h
Half-Life ([9]; SIF pH 6.8, 1 μM, 37° C.): >2 h
Formation of Treprostinil, Concentration ([9]; 0 min): 0 µM
Formation of Treprostinil, Concentration ([9]; 15 min): 0 µM
Formation of Treprostinil, Concentration ([9]; 30 min): 0 µM
Formation of Treprostinil, Concentration ([9]; 60 min): 0 µM
Formation of Treprostinil, Concentration ([9]; 120 min): 0.0126 µM
Treprostinil Concentration, 0 min [10]: 0.0636 µM
Treprostinil Concentration, 15 min [10]: 0.671 µM
Treprostinil Concentration, 30 min [10]: 0.541 µM
Treprostinil Concentration, 60 min [10]: 0.465 µM
Treprostinil Concentration, 120 min [10]: 0.401 µM
CLint ([10]; hepatocytes): >0.0308 mL/min/mg protein
Half-Life ([10]; hepatocytes): <0.25 h
Formation of Treprostinil, Concentration ([11]; 0 min): 0 µM
Half-Life ([11]; 1 μM, 37° C.): >2 h
Formation of Treprostinil, Concentration ([11]; 15 min): 0 µM
Formation of Treprostinil, Concentration ([11]; 30 min): 0 µM
Percent Remaining ([11]; 120 min, 1 μM, 37° C.): 86.5%
Formation of Treprostinil, Concentration ([11]; 120 min): 0 µM
Formation of Treprostinil, Concentration [11]: 0 µM
Activity at the DP1 receptor compared to treprostinil [12]: several hundred-fold less active
Activity at the IP receptor compared to treprostinil [13]: inactive
